The source of these data is article PMC7356998, “Intrinsic Dissolution Rate Profiling of Poorly Water-Soluble Compounds in Biorelevant Dissolution Media” (Pharmaceutics, 2020).

Values after ≈ are worked out from the molar mass of the structure shown. Like-named read-outs stand apart in the source and are kept apart here.

Data set [1] can be described thus: Intrinsic dissolution rate from miniaturized discs (DIDR), μDiss Profiler. The format is physicochemical. As to conditions: disc (D), 100 rpm, mean ± SD; for IDRFaSSIF-V1: FaSSIF-V1 pH 6.5, 37 °C; for IDRFaSSIF-V2: FaSSIF-V2 pH 6.5, 37 °C. The method, then: Dissolution experiments were carried out in a small-scale dissolution apparatus using in situ fiber optic probes to measure the amount of drug dissolved over time by UV absorbance (μDiss Profiler, Pion Inc., Billerica, MA, USA). Drug dissolution was carried out from suspensions (S) or discs (D) depending on the solubility of the compound in the biorelevant media studied (Table 3). […] Standard curves were established by adding aliquots of DMSO stock solutions of the compounds to 3 mL of biorelevant medium, respectively. Dissolution media were prepared following the protocol provided by Biorelevant.com Ltd. and used within 48 h after their preparation. The media were incubated at 37 °C for at least one hour prior to use in the dissolution experiments. The hydrodynamic diameter of the micelles/vesicles formed in the biorelevant media were measured by DLS (Table 2). […] Stirring was turned off while measuring the UV absorbance for each aliquot and the standard curve was established based on six aliquots. […] Intrinsic dissolution rates will henceforth be denoted 'IDR' for both SIDR and DIDR values determined in this study (see Table 3 for details).

The next data set is described as follows: physchem. The note with it: 37 °C, pH 6.5, fassif, thermodynamic from solid.
The nature of data set [2]: Apparent solubility estimated from dissolution experiments in the μDiss Profiler. As to conditions: for solubility thermodynamic: thermodynamic from solid. It is filed as physicochemical. The method, then:
If literature values were not available, Sapp values were estimated from the dissolution experiments either from the steady state concentration reached during dissolution making use of an excess amount material, or by nonlinear regression analysis of the dissolution data in GraphPad Prism 7.04 (GraphPad Software Inc., San Diego, CA, USA). […] In these experiments, an excess amount of drug was added to triplicate Eppendorf tubes containing 1 mL of the respective dissolution medium. The tubes were vortexed and placed in a 37 °C incubator. Samples for HPLC analysis were taken 24, 48, and 72 h (triplicates at each time point) after initiation of the experiment to ensure that equilibrium had been reached. The samples were centrifuged at 37 °C, 23,000 g for 10 min (Heraeus Megafuge 8R, Thermo Scientific, Waltham, MA, USA). The supernatant was sampled, diluted 1:1 with acetonitrile, and kept refrigerated until HPLC analysis. The concentrations of the dissolved drugs were determined using a HPLC (Agilent Technologies 1290 Infinity, Santa Clara, CA, USA) with a Zorbax Eclipse XDB-C18 column (4.6 × 100 mm; Agilent Technologies, Santa Clara, CA, USA) kept at 40 °C. The injection volumes were 20 μL. A mobile phase 0.1% formic acid in acetonitrile: 0.1% formic acid in water 60:40 (v/v) and an isocratic flow rate at 1 mL/min were used for both naproxen and ethinylestradiol. UV absorbances were monitored at a wavelength of 232 nm for naproxen and 315 nm for ethinylestradiol. The retention time was 1.76 min for naproxen and 1.85 min for ethinylestradiol. Dissolution experiments were carried out in a small-scale dissolution apparatus using in situ fiber optic probes to measure the amount of drug dissolved over time by UV absorbance (μDiss Profiler, Pion Inc., Billerica, MA, USA). Drug dissolution was carried out from suspensions (S) or discs (D) depending on the solubility of the compound in the biorelevant media studied (Table 3). […] Glass vials (six in parallel), each containing 15 mL of biorelevant dissolution medium and a crossbar stirrer, were used for the dissolution experiments. The stirring rate was set to 100 rpm. Freshly prepared API suspensions were briefly vortexed to re-disperse any sediments and 500 μL of suspension was added to each vial to initiate the experiment. […] Experiments were run for at least 20 min with data collected every 1 s for the first 8 min and then once per minute for the remaining time. All dissolution experiments from suspensions were carried out in triplicate.

For data set [3] the following is noted: apparent solubility, cited from earlier work.

Method for physchem: In these experiments, an excess amount of drug was added to triplicate Eppendorf tubes containing 1 mL of the respective dissolution medium. The tubes were vortexed and placed in a 37 °C incubator. Samples for HPLC analysis were taken 24, 48, and 72 h (triplicates at each time point) after initiation of the experiment to ensure that equilibrium had been reached. The samples were centrifuged at 37 °C, 23,000 g for 10 min (Heraeus Megafuge 8R, Thermo Scientific, Waltham, MA, USA). The supernatant was sampled, diluted 1:1 with acetonitrile, and kept refrigerated until HPLC analysis. […] The injection volumes were 20 μL.

Consider `C#C[C@]1(O)CC[C@H]2[C@@H]3CCc4cc(O)ccc4[C@H]3CC[C@@]21C` [Ethinylestradiol], for which, in data set [1], the IDRFaSSIF-V1 is on record as 3.2 ±0.1 μg/min/cm^2 and the IDRFaSSIF-V2 is reported as 6.6 ± 0.8 μg/min/cm^2. The solubility thermodynamic in “physchem” stood at 18.7 ± 1.3 µg/mL (≈ 63.1 µM).
In turn, `CC(C)(Oc1ccc(C(=O)c2ccc(Cl)cc2)cc1)C(=O)O` [Fenofibric acid] returned an IDRFaSSIF-V1 in data set [1] of 227 ± 33 μg/min/cm^2. The solubility thermodynamic in data set [2] (FaSSIF-V1, 37 °C, pH 6.5, fassif, FaSSIF-V1 pH 6.5, determined from dissolution experiments in the μDiss Profiler, read-out: SFaSSIF-V1) was ~100 µg/mL (≈ 314 µM); in data set [2] (FeSSIF-V1, 37 °C, pH 5, fessif, FeSSIF-V1 pH 5, determined from dissolution experiments in the μDiss Profiler, read-out: SFeSSIF-V1), 101 ± 3.8 µg/mL (≈ 318 µM). For the same molecule, the SFaSSIF-V1 in data set [2] (FaSSIF-V1 pH 6.5, determined from dissolution experiments in the μDiss Profiler) is 104.8 ± 1.0 µg/mL.
In data set [1], `COc1ccc2cc([C@H](C)C(=O)O)ccc2c1` [Naproxen] yielded an IDRFaSSIF-V1 of 144 ± 12 μg/min/cm^2 and an IDRFaSSIF-V2 of 179 ± 11 μg/min/cm^2.
In data set [1], `COc1ccc2c(c1)c(CC(=O)O)c(C)n2C(=O)c1ccc(Cl)cc1` [Indomethacin] gave an IDRFaSSIF-V1 of 31 ± 1.3 μg/min/cm^2. Further, the SFaSSIF-V1 in data set [3] (FaSSIF-V1 pH 6.5) was 421.7 ± 17.6 [7] μg/mL. For the same molecule, in data set [3] (FeSSIF-V1 pH 5), the SFeSSIF-V1 was 109.0 ± 7.0 [15] μg/mL.
